This note sets out measurements from US20110312941A1, “1,4-DISUBSTITUTED PIPERIDINES AS VASOPRESSIN RECEPTOR VIA ANTAGONISTS” (VANTIA LIMITED, priority 2009, published 2011).

Structures are written as SMILES.

This assay deals with T1, cloned human V1a receptor (Homo sapiens, UniProt P37288).
T1 construct: host or cells: human brain astrocytoma 1321N1 cells
Put plainly: in vitro functional calcium mobilisation assay (FLIPR), antagonist activity, 1321N1 cells, 250 pM AVP. The conditions noted are these: functional pKi derived from pIC50 (Equation 1), FLIPR Ca2+ mobilisation, 1321N1 cells expressing cloned human V1a receptor, read-out: Mean fpKi (Human V1a) (converted). It is filed as cell-based. The protocol: The primary assay which may be used to determine the ability of the compounds of formula (1) to inhibit the vasopressin V1a receptor is an in vitro functional calcium mobilisation assay (FLIPR) that measures antagonist activity at a cloned human V1a receptor. The assay is described below.
The antagonist activity of compounds of formula (1) were determined in a Calcium (Ca2+) mobilisation assay using whole cells (human brain astrocytoma 1321N1 cells, ex Perkin Elmer) genetically modified to stably express a cloned human V1a receptor. Dose response curves were determined by displacement of a single concentration of agonist (250 pM AVP, ex Sigma) with increasing concentrations of compound. A pIC50 value is determined by non-linear regression to a 4-parameter logistic equation and a functional pKi (fpKi) derived using Equation 1.
where A=agonist single conc, and A50=the agonist EC50.

T1 sequence (P37288 whole entry): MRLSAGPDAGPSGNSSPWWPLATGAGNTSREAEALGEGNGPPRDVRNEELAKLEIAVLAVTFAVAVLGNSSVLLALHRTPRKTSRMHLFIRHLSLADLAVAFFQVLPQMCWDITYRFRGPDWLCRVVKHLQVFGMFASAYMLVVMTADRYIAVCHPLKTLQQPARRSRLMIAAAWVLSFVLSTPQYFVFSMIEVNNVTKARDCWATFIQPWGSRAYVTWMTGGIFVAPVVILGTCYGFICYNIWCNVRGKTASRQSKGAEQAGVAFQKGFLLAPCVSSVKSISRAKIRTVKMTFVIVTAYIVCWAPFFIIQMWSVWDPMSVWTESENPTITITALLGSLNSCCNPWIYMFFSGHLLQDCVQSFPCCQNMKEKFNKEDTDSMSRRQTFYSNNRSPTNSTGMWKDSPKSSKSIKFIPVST

Turning to `COc1ccccc1N1CCC(C(=O)N2CCc3nc(C)[nH]c3-c3cc(Cl)ccc32)CC1` [Example 92], the Ki is 22.9 nM. For `COc1cccc(N2CCC(C(=O)N3CCc4nc(C)[nH]c4-c4cc(Cl)ccc43)CC2)c1` [Example 93] the value was 2.51 nM. Turning to `COc1ccc(N2CCC(C(=O)N3CCc4nc(C)[nH]c4-c4cc(Cl)ccc43)CC2)cc1` [Example 94], the Ki is 16.2 nM. To `CCc1ccc(N2CCC(C(=O)N3CCc4nc(C)[nH]c4-c4cc(Cl)ccc43)CC2)cc1` [Example 95] belongs 3.16 nM; to `CCCc1ccc(N2CCC(C(=O)N3CCc4nc(C)[nH]c4-c4cc(Cl)ccc43)CC2)cc1` [Example 96], 13.5 nM. As for `Cc1nc2c([nH]1)-c1cc(Cl)ccc1N(C(=O)C1CCN(c3ccc(C(C)C)cc3)CC1)CC2` [Example 97], the Ki is 22.4 nM. For `Cn1ncc2c1Nc1ccccc1N(C(=O)C1CCN(c3ncccn3)CC1)C2` [Example 98] the value was 141 nM; for `O=C(C1CCN(c2nccc(C(F)(F)F)n2)CC1)N1Cc2cnn(C3CCCCC3)c2Nc2ccccc21` [Example 99], 35.5 nM. For `Cn1ncc2c1Nc1cc(F)ccc1N(C(=O)C1CCN(c3ncccn3)CC1)C2` [Example 100] the value was 145 nM. For `CCn1ncc2c1Nc1cc(F)ccc1N(C(=O)C1CCN(c3nccc(C(F)(F)F)n3)CC1)C2` [Example 101, (3-Ethyl-6-fluoro-4,10-dihydro-3H-2,3,4,9-tetraaza-benzo[f]azulen-9-yl)-[1-(4-trifluoromethyl-pyrimidin-2-yl)-piperidin-4-yl]-methanone] the value was 575 nM. Take `Cc1ccc2c(c1)Nc1c(cnn1C)CN2C(=O)C1CCN(c2ncccn2)CC1` [Example 102]: the Ki was 151 nM. Take `Cn1ncc2c1Nc1cc(Cl)ccc1N(C(=O)C1CCN(c3ncccn3)CC1)C2` [Example 103, (6-Chloro-3-methyl-4,10-dihydro-3H-2,3,4,9-tetraaza-benzo[f]azulen-9-yl)-(1-pyrimidin-2-yl-piperidin-4-yl)-methanone]: the Ki was 75.9 nM. For `O=C(C1CCN(c2ncccn2)CC1)N1Cc2cnn(-c3ccccc3)c2Nc2cc(Cl)ccc21` [Example 104] the value was 14.1 nM; for `CCc1cnc(N2CCC(C(=O)N3Cc4cnn(-c5ccccc5)c4Nc4cc(Cl)ccc43)CC2)nc1` [Example 105], 13.8 nM; for `Cn1ncc2c1Nc1ccccc1N(C(=O)C1CCN(c3ccccn3)CC1)C2` [Example 106], 12.6 nM. In the case of `CCn1ncc2c1Nc1cc(F)ccc1N(C(=O)C1CCN(c3ccc(C)cn3)CC1)C2` [Example 107], the Ki was 1.91 nM.

Take `Cc1ccc(N2CCC(C(=O)N3Cc4cnn(C(C)(C)C)c4Nc4cc(F)ccc43)CC2)nc1` [Example 108]: the Ki is 5.37 nM. In the case of `Cc1ccc2c(c1)Nc1c(cnn1C)CN2C(=O)C1CCN(c2ccccn2)CC1` [Example 109], the Ki is 12.9 nM. To `Cc1ccc2c(c1)Nc1c(cnn1C)CN2C(=O)C1CCN(c2ncccc2C)CC1` [Example 110] belongs 4.57 nM; to `Cc1ccnc(N2CCC(C(=O)N3Cc4cnn(C)c4Nc4cc(C)ccc43)CC2)c1` [Example 111], 2.4 nM; to `Cc1ccc(N2CCC(C(=O)N3Cc4cnn(C)c4Nc4cc(C)ccc43)CC2)nc1` [Example 112], 2.82 nM. To `COc1cccnc1N1CCC(C(=O)N2Cc3cnn(C)c3Nc3cc(C)ccc32)CC1` [Example 113] belongs 30.2 nM; to `Cc1ccc(N2CCC(C(=O)N3Cc4cnn(Cc5ccccc5)c4Nc4cc(C)ccc43)CC2)nc1` [Example 114], 20 nM; to `Cn1ncc2c1Nc1cc(Cl)ccc1N(C(=O)C1CCN(c3ccccn3)CC1)C2` [Example 115], 6.92 nM. As for `Cc1cccnc1N1CCC(C(=O)N2Cc3cnn(C)c3Nc3cc(Cl)ccc32)CC1` [Example 116], the Ki is 2.69 nM. Regarding `Cc1ccnc(N2CCC(C(=O)N3Cc4cnn(C)c4Nc4cc(Cl)ccc43)CC2)c1` [Example 117], the Ki is 2 nM.

With `Cc1ccc(N2CCC(C(=O)N3Cc4cnn(C)c4Nc4cc(Cl)ccc43)CC2)nc1` [Example 118], the Ki is 1.74 nM. With `COc1cccnc1N1CCC(C(=O)N2Cc3cnn(C)c3Nc3cc(Cl)ccc32)CC1` [Example 119], the Ki is 19.1 nM. `CCn1ncc2c1Nc1cc(Cl)ccc1N(C(=O)C1CCN(c3ncccc3C)CC1)C2` [Example 120]: the Ki is 0.912 nM. For `CCn1ncc2c1Nc1cc(Cl)ccc1N(C(=O)C1CCN(c3cc(C)ccn3)CC1)C2` [Example 121], the Ki is 0.427 nM. `CCn1ncc2c1Nc1cc(Cl)ccc1N(C(=O)C1CCN(c3ccc(C)cn3)CC1)C2` [Example 122]: the Ki was 0.603 nM. On to `Cc1ccc(N2CCC(C(=O)N3Cc4cnn(-c5ccccc5)c4Nc4cc(Cl)ccc43)CC2)nc1` [Example 123], for which the Ki was 2 nM. Turning to `Cc1ccc2c(c1)Nc1c(cnn1C)CN2C(=O)C1CCN(c2cccc(C)n2)CC1` [Example 124], the Ki was 9.55 nM. To `Cc1cccc(N2CCC(C(=O)N3Cc4cnn(C)c4Nc4cc(Cl)ccc43)CC2)n1` [Example 125] belongs 5.89 nM.

Regarding `CCn1ncc2c1Nc1cc(Cl)ccc1N(C(=O)C1CCN(c3cccc(C)n3)CC1)C2` [Example 126], the Ki was 1.2 nM.

For the molecule `Cc1ccc2c(c1)Nc1c(cnn1C)CN2C(=O)C1CCN(c2ccccc2F)CC1` [Example 127], the Ki was 2 nM. Regarding `Cc1cccc(N2CCC(C(=O)N3Cc4cnn(C)c4Nc4cc(C)ccc43)CC2)c1` [Example 128], the Ki was 1.32 nM.

As to `Cc1ccc(N2CCC(C(=O)N3Cc4cnn(C)c4Nc4cc(C)ccc43)CC2)cc1` [Example 129], the Ki is 0.324 nM.

For the molecule `COc1ccc(N2CCC(C(=O)N3Cc4cnn(C)c4Nc4cc(C)ccc43)CC2)cc1` [Example 131], the Ki was 3.09 nM. To `CCc1ccc(N2CCC(C(=O)N3Cc4cnn(C)c4Nc4cc(C)ccc43)CC2)cc1` [Example 132] belongs 0.741 nM; to `Cc1ccc2c(c1)Nc1c(cnn1C)CN2C(=O)C1CCN(c2ccc(C(F)(F)F)cc2)CC1` [Example 133], 5.37 nM. For `Cn1ncc2c1Nc1cc(Cl)ccc1N(C(=O)C1CCN(c3ccccc3F)CC1)C2` [Example 134] the value was 1.74 nM.

On to `Cc1cccc(N2CCC(C(=O)N3Cc4cnn(C)c4Nc4cc(Cl)ccc43)CC2)c1` [Example 135], for which the Ki was 1.29 nM. For the molecule `Cc1ccc(N2CCC(C(=O)N3Cc4cnn(C)c4Nc4cc(Cl)ccc43)CC2)cc1` [Example 136], the Ki is 0.617 nM. To `COc1cccc(N2CCC(C(=O)N3Cc4cnn(C)c4Nc4cc(Cl)ccc43)CC2)c1` [Example 137] belongs 1.78 nM. Take `COc1ccc(N2CCC(C(=O)N3Cc4cnn(C)c4Nc4cc(Cl)ccc43)CC2)cc1` [Example 138]: the Ki is 2.63 nM.

On to `CCc1ccc(N2CCC(C(=O)N3Cc4cnn(C)c4Nc4cc(Cl)ccc43)CC2)cc1` [Example 139], for which the Ki is 0.912 nM. To `Cn1ncc2c1Nc1cc(Cl)ccc1N(C(=O)C1CCN(c3ccc(C(F)(F)F)cc3)CC1)C2` [Example 140] belongs 8.51 nM. Take `Cc1ccc2c(c1)Nc1c(cnn1C)CN2C(=O)C1CCN(c2ccc(C)nc2)CC1` [Example 141]: the Ki is 5.13 nM. As for `Cc1ccc(N2CCC(C(=O)N3Cc4cnn(C)c4Nc4cc(Cl)ccc43)CC2)cn1` [Example 142], the Ki is 2.88 nM.
